Legend:
MCP2201 [1] = target: T1, MCP2201 (Comamonas thiooxydans, UniProt A0ABF7PFR0); assay: ITC; crystal structure at […] Å; analytical ultracentrifugation; type: binding
T1 construct: gene CtCNB1_2201; MCP2201-LBD (residues 58–203), N-terminal His6-tag
T1 sequence (A0ABF7PFR0 58-203): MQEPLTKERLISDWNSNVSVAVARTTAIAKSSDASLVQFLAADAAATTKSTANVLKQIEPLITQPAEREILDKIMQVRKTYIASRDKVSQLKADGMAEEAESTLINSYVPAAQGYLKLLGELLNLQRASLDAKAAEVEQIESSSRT

MCP2201 [2] = target: T2, MCP2201 (Comamonas thiooxydans, UniProt A0ABF7PFR0, T108A); assay: ITC; type: binding
T2 construct: gene CtCNB1_2201; MCP2201-LBD (residues 58–203), isolated periplasmic domain

For `O=C(O)C[C@H](O)C(=O)O` [L-malate], the Kd (MCP2201 [1]) was 18.8 ± 7.45 µM and the Kd (MCP2201 [2]) was 995 ± 438 µM.

Source: publication PMC10735184, “Attractant and repellent induce opposing changes in the four-helix bundle ligand-binding domain of a bacterial chemoreceptor” (PLOS Biology, 2023)
